These results are taken from paper PMC9304199, “A small molecule CFTR potentiator restores ATP‐dependent channel gating to the cystic fibrosis mutant G551D‐CFTR” (British Journal of Pharmacology, 2022).

The structures appear in SMILES notation. Like-named read-outs stand apart in the source and are kept apart here.

For the experiment, the target named is G551D‐CFTR (Homo sapiens, UniProt P13569, G551D). Briefly: Single-channel recording in excised inside-out membrane patches, G551D‐CFTR. The format is biochemical. Details: expressed in transfected cells; BHK cells from MD Amaral. Conditions: for enhancement of Po(app): each compound 10 μM, alone or together; for Emax: read-out: Maximal effect (%) (95% CI). How it is done: For CFTR studies using automated electrophysiology and single-channel recording, we used baby hamster kidney (BHK) cells (RRID:CVCL_1915) and human embryonic kidney (HEK) 293 cells (RRID:CVCL_0045) stably expressing wild-type human CFTR and the CFTR variants F508del- and […] et al., [2002]; Xu et al., [2014]). […] HEK cells expressing CFTR variants were generated using the Flp-InTM system as described above for F508del- and G551D-CFTR-expressing FRT cells. They were cultured in Dulbecco's modified Eagle's medium (glucose, 1.5 g·L^-1; sodium pyruvate, 110 mg·L^-1) supplemented with 10% FBS (PAA Laboratories), GlutaMAXTM and hygromycin-B (150 μg·ml^-1; InvitrogenTM, Thermo Fisher Scientific) at 37°C in a humidified atmosphere with 5% CO2. Prior to study, F508del-CFTR expressed in HEK cells was trafficked to the plasma membrane by low temperature incubation (27°C for 24-72 h). The single-channel behaviour of human CFTR in excised membrane patches from different mammalian cell lines heterologously expressing CFTR is equivalent (wild-type CFTR, Chen et al., [2009]; F508del-CFTR, Bose et al., [2019]; and G551D-CFTR, J Liu, Y Wang, Z Cai, and DN Sheppard, unpublished observations). CFTR Cl^- channels were recorded in excised inside-out membrane patches using an Axopatch 200B patch-clamp amplifier and pCLAMP software (version 10.3) (RRID:SCR_011323) (both from Molecular Devices, San Jose, CA, USA) (Sheppard & Robinson, [1997]). […] Within 2 min after membrane patch excision, we added the catalytic subunit of protein kinase A (PKA; 75 nM) and ATP (1 mM) to the intracellular solution to activate CFTR Cl^- channels. To minimise channel rundown, we added PKA and millimolar concentrations of ATP to all intracellular solutions and clamped voltage at -50 mV. […] We reduced the ATP concentration when testing CFTR potentiators on wild-type CFTR to observe their effects more clearly. […] Instead, specific interventions with CFTR potentiators were compared with the pre-intervention control period made with the same concentration of ATP and PKA, but without test compounds. […] F508del-CFTR, n ≤ 4; G551D-CFTR, n ≤ 5). To determine channel number, we used the maximum number of simultaneous channel openings observed during an experiment (Cai et al., [2006]). To minimise errors, we used experimental conditions that robustly potentiate channel activity and verified that recordings were of sufficient length to ascertain the correct number of channels ([…] et al., [1994]). […] Despite our precautions, we cannot exclude the possibility of unobserved G551D-CFTR Cl^- channels in excised membrane patches causing Po values for G551D-CFTR to be […]. Therefore, Po values for G551D-CFTR are expressed as apparent Po (Po(app)) values. Single-channel currents were directly acquired to a computer hard disc after filtering at a corner frequency (f c) of 500 Hz with an eight-pole Bessel filter (model LHBF-48×; npi electronic GmbH, Tamm, Germany) and digitising at a sampling rate of 5 kHz using a Digidata 1440A interface (Molecular Devices) and pCLAMP software. To measure single-channel current amplitude (i), Gaussian distributions were fit to current amplitude histograms. For Po and burst analyses, lists of open- and closed-times were created using a half-amplitude crossing criterion for event detection and dwell-time histograms constructed as previously described (Sheppard & Robinson, [1997]); transitions < 1 ms were excluded from the analysis (eight-pole Bessel filter rise time [T 10-90] ~ 0.73 ms at f c = 500 Hz). Histograms were fitted with one or more component exponential functions using the maximum likelihood method. […] The mean interburst interval (TIBI) was calculated using the equation (Cai et al., [2006]): (1) Po=Tb/TMBD+TIBI, where T b = (mean burst duration) × (open probability within a burst). Mean burst duration (T MBD) and open probability within a burst (Po[burst]) were determined directly from experimental data using pCLAMP software. […]

Setting [1] is: G551D‐CFTR Cl− channels, excised inside-out patches, 23°C, data normalised to ivacaftor 1 μM, read-out: EC50 (μM) (95% CI).
[2] abbreviates: G551D‐CFTR, ATP 1 mM, PKA 75 nM, ~23°C.
Setting [3] is: G551D‐CFTR, ATP 1 mM, PKA 75 nM, ~23°C, read-out: EC50 for potentiation of Po(app).
Setting [4] is: G551D‐CFTR, compound 10 μM, ATP 0.1–3 mM.

In general, EC50 refers to the concentration at which the effect is half-maximal.

Chain of G551D‐CFTR (P13569 whole entry G551D): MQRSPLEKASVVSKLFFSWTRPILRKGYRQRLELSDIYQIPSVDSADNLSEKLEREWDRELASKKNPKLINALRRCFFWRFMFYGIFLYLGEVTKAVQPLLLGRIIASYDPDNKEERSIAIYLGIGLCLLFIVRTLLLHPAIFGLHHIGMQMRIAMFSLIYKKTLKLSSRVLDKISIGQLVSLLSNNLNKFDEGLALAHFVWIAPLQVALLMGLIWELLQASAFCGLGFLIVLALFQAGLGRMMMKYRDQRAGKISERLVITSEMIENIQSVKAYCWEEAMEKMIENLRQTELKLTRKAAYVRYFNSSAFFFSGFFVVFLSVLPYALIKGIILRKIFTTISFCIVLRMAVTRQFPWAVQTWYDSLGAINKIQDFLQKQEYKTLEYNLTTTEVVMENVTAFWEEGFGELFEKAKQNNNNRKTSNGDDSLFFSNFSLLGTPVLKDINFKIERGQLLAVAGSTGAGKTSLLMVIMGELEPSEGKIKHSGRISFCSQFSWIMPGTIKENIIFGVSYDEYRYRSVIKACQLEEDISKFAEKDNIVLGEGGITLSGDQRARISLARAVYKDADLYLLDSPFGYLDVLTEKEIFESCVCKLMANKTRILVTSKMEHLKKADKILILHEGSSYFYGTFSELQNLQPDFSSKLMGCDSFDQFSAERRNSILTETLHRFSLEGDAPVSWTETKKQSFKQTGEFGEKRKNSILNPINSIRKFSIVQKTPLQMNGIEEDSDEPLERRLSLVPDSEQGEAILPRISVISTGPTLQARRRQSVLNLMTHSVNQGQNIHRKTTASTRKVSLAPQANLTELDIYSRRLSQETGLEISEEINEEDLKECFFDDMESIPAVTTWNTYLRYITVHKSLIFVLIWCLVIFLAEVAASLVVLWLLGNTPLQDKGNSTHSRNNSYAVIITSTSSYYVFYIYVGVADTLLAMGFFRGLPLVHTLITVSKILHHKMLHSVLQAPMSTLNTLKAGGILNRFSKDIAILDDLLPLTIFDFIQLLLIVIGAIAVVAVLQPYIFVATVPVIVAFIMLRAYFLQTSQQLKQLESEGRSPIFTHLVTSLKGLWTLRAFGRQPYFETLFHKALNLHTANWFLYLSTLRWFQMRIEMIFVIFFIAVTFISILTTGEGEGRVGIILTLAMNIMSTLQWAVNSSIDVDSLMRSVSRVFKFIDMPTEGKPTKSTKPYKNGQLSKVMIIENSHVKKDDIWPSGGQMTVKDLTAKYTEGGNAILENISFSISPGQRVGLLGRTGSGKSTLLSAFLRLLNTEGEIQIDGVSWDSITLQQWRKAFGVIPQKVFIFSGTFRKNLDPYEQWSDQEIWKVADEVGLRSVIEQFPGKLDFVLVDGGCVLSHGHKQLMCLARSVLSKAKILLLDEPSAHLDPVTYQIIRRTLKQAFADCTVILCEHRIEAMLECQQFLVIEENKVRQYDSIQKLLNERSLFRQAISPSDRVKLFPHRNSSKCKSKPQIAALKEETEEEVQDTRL

`Cc1ncccc1CNC(=O)c1ccc2c(c1)CC[C@H]1C[C@](O)(CCC(F)(F)F)CC[C@]21Cc1ccccc1` (racemic) [CP‐628006, rac‐(4bR,7R,8aS)‐4b‐benzyl‐7‐hydroxy‐N‐((2‐methylpyridin‐3‐yl)methyl)‐7‐(3,3,3‐trifluoropropyl)‐4b,5,6,7,8,8a,9,10‐octahydrophenanthrene‐2‐carboxamide]: the Emax was 145%. Under setting [1], the EC50 came to 0.17 µM. Further, under setting [2], the “Po(app) max” value amounted to 0.38. Further, the half-maximal effective concentration (EC50) under setting [3] came to 0.38 µM. Further, under setting [4], the “Po(app) max of ATP-dependence in presence of compound” value is 0.30. Also, the “enhancement of Po(app)” value (G551D‐CFTR, ATP 1 mM) is on record as 71 ± 30 fold.
As to `CC(C)(C)c1cc(C(C)(C)C)c(NC(=O)c2c[nH]c3ccccc3c2=O)cc1O` [ivacaftor, reference compound], the Emax came out at 96.7%. Also, under setting [1], the half-maximal effective concentration (EC50) was found to be 0.036 µM. The “Po(app) max” value under setting [2] is given as 0.31. Also, the EC50 under setting [3] is 0.14 µM. For the same compound, the “ATP-dependence of G551D‐CFTR activity in presence of compound” value under setting [4] is listed as “unaffected by altering the ATP concentration”. The “enhancement of Po(app)” value (G551D‐CFTR, ATP 1 mM) was determined as 44 ± 12 fold.
